In one assay the test system is HCT-15. Briefly: cells. The conditions noted are these: Homo sapiens, HCT-15, 48 h.
The next assay deals with SF-295. Briefly: Cytotoxicity against human SF295 cells after 48 hrs by sulforhodamine B assay. Format: functional, cell-based. Conditions: SF-295, 48 h. (In general: In SRB staining, fixed cells bind dye roughly in proportion to their protein.)
Assay [1] has as its system MCF7. Briefly: cells. Conditions: Homo sapiens, MCF7, 48 h.
Description: Cytotoxicity against human MCF7 cells after 48 hrs by sulforhodamine B assay
Another assay relates to A549. The assay can be described thus: cells. The conditions noted are these: Homo sapiens, A549, 48 h.
For a further assay, the system named is PC-3. The assay can be described thus: cells. The conditions noted are these: Homo sapiens, PC-3, 48 h.
The next assay concerns HEp-2. Briefly: Cytotoxicity against human Hep2 cells after 48 hrs by sulforhodamine B assay. Format: functional, cell-based. The conditions noted are these: HEp-2, 48 h.
Assay [2] has as its system MCF7. The assay can be described thus: Cell cycle arrest in human MCF7 cells assessed as accumulation in S-phase at 5 uM after 24 hrs using propidium iodide staining by flow cytometry (reference value: 25.29%). Format: functional. On the technique in general: A flow cytometer gives signals particle by particle.
Assay [3] deals with MCF7. The assay can be described thus: Cell cycle arrest in human MCF7 cells assessed as accumulation at sub-G1 phase at 5 uM after 24 hrs using propidium iodide staining by flow cytometry (reference value: 7.69%). The assay is classed as functional.
Assay [4] has as its system MCF7. Briefly: Cell cycle arrest in human MCF7 cells assessed as accumulation at G1/G0-phase at 5 uM after 24 hrs using propidium iodide staining by flow cytometry (reference value: 47.42%). The assay is classed as functional.
For assay [5], the system named is MCF7. Briefly: Cell cycle arrest in human MCF7 cells assessed as accumulation at sub-G1 phase at 1 uM after 24 hrs using propidium iodide staining by flow cytometry (reference value: 7.69%). Format: functional.
Assay [6] deals with MCF7. Briefly: Cell cycle arrest in human MCF7 cells assessed as accumulation at G2/M-phase at 5 uM after 24 hrs using propidium iodide staining by flow cytometry (reference value: 19.91%). The assay is classed as functional.
Assay [7] has as its system MCF7. Briefly: Cell cycle arrest in human MCF7 cells assessed as accumulation at G1/G0-phase at 1 uM after 24 hrs using propidium iodide staining by flow cytometry (reference value: 47.42%). Format: functional.
Assay [8] has as its system MCF7. The assay can be described thus: Cell cycle arrest in human MCF7 cells assessed as accumulation in S-phase at 1 uM after 24 hrs using propidium iodide staining by flow cytometry (reference value: 25.29%). Format: functional.
Assay [9] has as its system MCF7. Briefly: Induction of apoptosis in human MCF7 cells assessed as DNA ladder formation at 1 uM after 24 hrs using ethidium bromide staining by agarose gel electrophoresis. The assay is classed as functional, cell-based.
Assay [10] has as its system MCF7. The assay can be described thus: Cell cycle arrest in human MCF7 cells assessed as accumulation at G2/M-phase at 1 uM after 24 hrs using propidium iodide staining by flow cytometry (reference value: 19.91%). Format: functional.

The source made the active and inactive calls. No cut-off for these calls is given here.

Description for A549: Cytotoxicity against human A549 cells after 48 hrs by sulforhodamine B assay
Description for HCT-15: Cytotoxicity against human HCT15 cells after 48 hrs by sulforhodamine B assay
Description for PC-3: Cytotoxicity against human PC3 cells after 48 hrs by sulforhodamine B assay

For orientation: IC50 means the midpoint of a concentration-inhibition curve. Turning to `COc1cc([C@@H]2c3cc4c(cc3[C@@H](O[C@@H]3O[C@@H]5CO[C@@H](C)O[C@H]5[C@H](O)[C@H]3O)[C@H]3COC(=O)[C@H]23)OCO4)cc(OC)c1O` [ETOPOSIDE], the IC50 is 7.15 µM in the assay with HCT-15, 13.5 µM with SF-295 and 19 µM with MCF7 [1].
Regarding `CCCCCCCCCCc1cn([C@@H]2c3cc4c(cc3[C@@H](c3cc(OC)c(OC)c(OC)c3)[C@H]3C(=O)OC[C@@H]32)OCO4)nn1`, the IC50 in the assay with A549 was > 100 µM; with HCT-15, 29 µM; in the assay with SF-295, 6.2 µM; with PC-3 it was 5.5 µM; with HEp-2, 5.8 µM; in the assay with MCF7 [1], 5.7 µM.
On to `CCCCCCc1cn([C@@H]2c3cc4c(cc3[C@@H](c3cc(OC)c(OC)c(OC)c3)[C@H]3C(=O)OC[C@@H]32)OCO4)nn1`, for which the half-inhibitory concentration (IC50) with A549 is 35 µM; with HCT-15 it was 27 µM; in the assay with SF-295, 10 µM; in the assay with PC-3 it was 6.4 µM; in the assay with HEp-2 it was 10 µM; in the assay on MCF7 [1] it was 8.6 µM.
With `CCCCCc1cn([C@@H]2c3cc4c(cc3[C@@H](c3cc(OC)c(O)c(OC)c3)[C@H]3C(=O)OC[C@@H]32)OCO4)nn1`, the concentration for half-maximal inhibition (IC50) is 26 µM in the assay on A549; 2.1 µM in the assay with HCT-15; 4.3 µM with SF-295; 4.7 µM in the assay with PC-3; 21 µM in the assay with HEp-2; 14 µM in the assay on MCF7 [1].
For the compound `CCCCCCCCCCc1cn([C@@H]2c3cc4c(cc3[C@@H](c3cc(OC)c(O)c(OC)c3)[C@H]3C(=O)OC[C@@H]32)OCO4)nn1`, the 50% inhibitory concentration (IC50) was determined as 30 µM in the assay with A549; 15 µM with HCT-15; 13 µM in the assay on SF-295; 19 µM with PC-3; 19 µM in the assay on HEp-2; 11 µM with MCF7 [1].
With `CCCCCCCc1cn([C@@H]2c3cc4c(cc3[C@@H](c3cc(OC)c(OC)c(OC)c3)[C@H]3C(=O)OC[C@@H]32)OCO4)nn1`, the half-inhibitory concentration (IC50) was determined as 36 µM in the assay with A549; 45 µM with HCT-15; 25 µM in the assay on SF-295; 23 µM with PC-3; 9.8 µM in the assay on HEp-2; 6.4 µM with MCF7 [1].
For the compound `CCCCCCc1cn([C@@H]2c3cc4c(cc3[C@@H](c3cc(OC)c(O)c(OC)c3)[C@H]3C(=O)OC[C@@H]32)OCO4)nn1`, the 50% inhibitory concentration (IC50) in the assay on A549 is 26 µM; with HCT-15 it was 11 µM; in the assay with SF-295 it was 18 µM; in the assay with PC-3, 8.7 µM; in the assay with HEp-2 it was > 100 µM; in the assay on MCF7 [1], 19 µM.
Consider `CCCCc1cn([C@@H]2c3cc4c(cc3[C@@H](c3cc(OC)c(OC)c(OC)c3)[C@H]3C(=O)OC[C@@H]32)OCO4)nn1`, for which the concentration for half-maximal inhibition (IC50) was found to be 82 µM in the assay on A549; 11 µM with HCT-15; 8.1 µM in the assay with SF-295; 6.6 µM with PC-3; 9.6 µM in the assay with HEp-2; 9.8 µM with MCF7 [1].
As for `COc1cc([C@@H]2c3cc4c(cc3[C@@H](n3cc(CO)nn3)[C@H]3COC(=O)[C@H]23)OCO4)cc(OC)c1OC`, the concentration for half-maximal inhibition (IC50) is > 100 µM in the assay with A549; 15 µM in the assay on HCT-15; 2.1 µM in the assay on SF-295; 0.06 µM with PC-3; 0.06 µM in the assay with HEp-2; 0.01 µM with MCF7 [1].
Take `CCCCCc1cn([C@@H]2c3cc4c(cc3[C@@H](c3cc(OC)c(OC)c(OC)c3)[C@H]3C(=O)OC[C@@H]32)OCO4)nn1`: the IC50 is 39 µM with A549; 11 µM with HCT-15; 24 µM with SF-295; 8.4 µM in the assay on PC-3; 7.7 µM in the assay with HEp-2; 9.5 µM in the assay with MCF7 [1].
On to `CCCCCCCCc1cn([C@@H]2c3cc4c(cc3[C@@H](c3cc(OC)c(OC)c(OC)c3)[C@H]3C(=O)OC[C@@H]32)OCO4)nn1`, for which the half-maximal inhibitory concentration (IC50) is > 100 µM with A549; > 100 µM in the assay with HCT-15; 14 µM in the assay on SF-295; 17 µM in the assay on PC-3; 18 µM with HEp-2; 9.3 µM in the assay on MCF7 [1].
On to `CCCc1cn([C@@H]2c3cc4c(cc3[C@@H](c3cc(OC)c(OC)c(OC)c3)[C@H]3C(=O)OC[C@@H]32)OCO4)nn1`, for which the Activity in the assay on MCF7 [2] was 11.44%; with MCF7 [3], 78.16%; with MCF7 [4] it was 10.56%; in the assay on MCF7 [5], 55.65%; in the assay on MCF7 [6], 1.07%; in the assay on MCF7 [7], 27.81%. The Activity in the assay on MCF7 [8] was 16.17%; with MCF7 [10] it was 3.39%. Besides, the half-maximal inhibitory concentration (IC50) in the assay with A549 came to 39 µM; in the assay on HCT-15, 0.03 µM; with SF-295, 3.6 µM; with PC-3, 5.1 µM; in the assay on HEp-2, 1.6 µM; with MCF7 [1], 1.4 µM. In the assay with MCF7 [9], the outcome was Active.
With `CCc1cn([C@@H]2c3cc4c(cc3[C@@H](c3cc(OC)c(OC)c(OC)c3)[C@H]3C(=O)OC[C@@H]32)OCO4)nn1`, the Activity came out at 2.84% in the assay on MCF7 [2]; 80.1% in the assay on MCF7 [3]; 16.28% in the assay with MCF7 [4]; 69.34% with MCF7 [5]; 1.74% in the assay on MCF7 [6]; 22.27% in the assay with MCF7 [7]. Moreover, the Activity with MCF7 [8] came to 5.99%; in the assay with MCF7 [10] it was 1.96%. Besides, the half-inhibitory concentration (IC50) in the assay with A549 worked out at 35 µM; with HCT-15, 0.4 µM; in the assay with SF-295, 1.8 µM; with PC-3, 0.03 µM; with HEp-2, 0.06 µM; in the assay on MCF7 [1], 0.4 µM. In addition, the result in the assay on MCF7 [9] was Active.
As for `CCc1cn([C@@H]2c3cc4c(cc3[C@@H](c3cc(OC)c(O)c(OC)c3)[C@H]3C(=O)OC[C@@H]32)OCO4)nn1`, the IC50 is 17 µM in the assay on A549; 1.9 µM in the assay with HCT-15; 4.8 µM in the assay on SF-295; 0.06 µM with PC-3; 0.05 µM in the assay with HEp-2; 0.04 µM in the assay with MCF7 [1].
`CCCCc1cn([C@@H]2c3cc4c(cc3[C@@H](c3cc(OC)c(O)c(OC)c3)[C@H]3C(=O)OC[C@@H]32)OCO4)nn1`: the half-inhibitory concentration (IC50) with A549 is 35 µM; in the assay with HCT-15, 34 µM; with SF-295 it was 21 µM; in the assay with PC-3 it was 12 µM; with HEp-2, 17 µM; in the assay with MCF7 [1], 20 µM.
For the compound `CCCCCCCc1cn([C@@H]2c3cc4c(cc3[C@@H](c3cc(OC)c(O)c(OC)c3)[C@H]3C(=O)OC[C@@H]32)OCO4)nn1`, the IC50 in the assay with A549 came out at 45 µM; in the assay with HCT-15, 15 µM; with SF-295 it was 10 µM; in the assay with PC-3 it was 5.8 µM; in the assay with HEp-2 it was 6 µM; in the assay on MCF7 [1], 13 µM.
For the compound `CCCc1cn([C@@H]2c3cc4c(cc3[C@@H](c3cc(OC)c(O)c(OC)c3)[C@H]3C(=O)OC[C@@H]32)OCO4)nn1`, the 50% inhibitory concentration (IC50) in the assay with A549 is 27 µM; with HCT-15 it was 0.8 µM; with SF-295, 2.3 µM; with PC-3, 0.2 µM; in the assay on HEp-2, 2.9 µM; with MCF7 [1], 5.7 µM.
On to `CCCCCCCCc1cn([C@@H]2c3cc4c(cc3[C@@H](c3cc(OC)c(O)c(OC)c3)[C@H]3C(=O)OC[C@@H]32)OCO4)nn1`, for which the IC50 in the assay with A549 was > 100 µM; in the assay with HCT-15 it was 13 µM; in the assay on SF-295, 5.7 µM; in the assay with PC-3, 5.1 µM; in the assay with HEp-2 it was 3.8 µM; with MCF7 [1] it was 11 µM.
`COc1cc([C@@H]2c3cc4c(cc3[C@@H](n3cc(CO)nn3)[C@H]3COC(=O)[C@H]23)OCO4)cc(OC)c1O`: the IC50 with A549 amounted to 18 µM; with HCT-15, 18 µM; with SF-295, 15 µM; in the assay with PC-3 it was 8.2 µM; in the assay with HEp-2, 6.7 µM; with MCF7 [1], 0.6 µM.
